Structures can show the parent of a compound that is named as a salt.
What follows are compounds tested on T1, 1N4R p-tau (assay: p-tau aggregation modulator screen of 1280-compound library (ThS fluorescence net change over 16 h)). Settings: not given.
T1 construct: made in house; host or cells: E. coli (PIMAX system)
Format: biochemical
Design: key to PTAI>3SD: *: PTAI>3SD
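Wherever ThS net change is given: 30 µM compound with 6 µM p-tau over 16 h.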

Compound	ThS net change
O=C(O)COCCN1CCN(C(c2ccccc2)c2ccc(Cl)cc2)CC1 (centres unmarked) [Cetirizine dihydrochloride]	373
O=C(O)c1cn(C2CC2)c2cc(N3CCNCC3)c(F)cc2c1=O [Ciprofloxacin hydrochloride monohydrate]	361
O=C([O-])[C@H]1/C(=C/CO)O[C@@H]2CC(=O)N21.[K+] [Clavulanate potassium salt]	431

Same assay, conditions: 1280-compound library screen; ThS fluorescence net change over 16 h

Compound	ThS net change
CO/N=C(\C(=O)N[C@@H]1C(=O)N2C(C(=O)O)=C(COC(C)=O)CS[C@H]12)c1csc(N)n1 [Cefotaxime sodium salt]	384
CO[C@@]1(NC(=O)C2SC(=C(C(N)=O)C(=O)O)S2)C(=O)N2C(C(=O)O)=C(CSc3nnnn3C)CS[C@@H]21 (some centres unmarked) [Cefotetan]	392
Cc1cc(O)c(C(=O)N[C@@H](C(=O)N[C@@H]2C(=O)N3C(C(=O)O)=C(CSc4nnnn4C)CS[C@H]23)c2ccc(O)cc2)cn1 [Cefpiramide]	407
NC(=O)c1cc[n+](CC2=C(C(=O)O)N3C(=O)[C@@H](NC(=O)[C@@H](c4ccccc4)S(=O)(=O)[O-])[C@H]3SC2)cc1 [Cefsulodin sodium salt]	388
CCN(CC)C(=O)Nc1ccc(OCC(O)CNC(C)(C)C)c(C(C)=O)c1 (centres unmarked) [Celiprolol HCl]	396
C[C@H](CCC(=O)O)[C@H]1CC[C@H]2[C@@H]3[C@H](O)C[C@@H]4C[C@H](O)CC[C@]4(C)[C@H]3CC[C@]12C [Chenodiol]	394
CC(=O)O[C@]1(C(C)=O)CC[C@H]2[C@@H]3C=C(Cl)C4=CC(=O)CC[C@]4(C)[C@H]3CC[C@@]21C [Chlormadinone acetate]	385
CN(C)CC/C=C1/c2ccccc2Sc2ccc(Cl)cc21 [Chlorprothixene hydrochloride]	392
NS(=O)(=O)c1cc(C2(O)NC(=O)c3ccccc32)ccc1Cl (centres unmarked) [Chlorthalidone]	382
O=C1CCc2cc(OCCCCc3nnnn3C3CCCCC3)ccc2N1 [Cilostazol]	397
COc1cc(N)c(Cl)cc1C(=O)NC1CCN(CCCOc2ccc(F)cc2)CC1OC (centres unmarked) [Cisapride]	397
Nc1nc(Cl)nc2c1ncn2[C@H]1C[C@H](O)[C@@H](CO)O1 [Cladribine]	399
COc1cc(N)c(Cl)cc1C(=O)NC1CCN(Cc2ccccc2)CC1 [Clebopride maleate]	406
C[N+]12CCC(CC1)C(OC(=O)C(O)(c1ccccc1)c1ccccc1)C2 (centres unmarked) [Clidinium bromide]	389
CCC(=O)O[C@]1(C(=O)CCl)[C@@H](C)C[C@H]2[C@@H]3CCC4=CC(=O)C=C[C@]4(C)[C@@]3(F)[C@@H](O)C[C@@]21C [Clobetasol propionate]	409

Same assay, conditions: 1280-compound library screen; […]

Compound	ThS net change
CC(=O)OCC1=C(C(=O)O)N2C(=O)[C@@H](N)[C@H]2SC1 [Cephalosporanic acid, 7-amino]	378
O=C(O)CCCc1ccc(N(CCCl)CCCl)cc1 [Chlorambucil]	386
CN1C(=O)CCS(=O)(=O)C1c1ccc(Cl)cc1 (centres unmarked) [Chlormezanone]	389

Same assay, conditions: flag: p-tau aggregation inhibitor, ThS net change more than 3 SD from mean

Compound	PTAI>3SD
COc1cc(-c2ccc(/N=N/c3ccc4c(S(=O)(=O)[O-])cc(S(=O)(=O)[O-])c(N)c4c3O)c(OC)c2)ccc1/N=N/c1ccc2c(S(=O)(=O)[O-])cc(S(=O)(=O)[O-])c(N)c2c1O.[Na+].[Na+].[Na+].[Na+] [Chicago sky blue 6B]	*
Cc1cc(C2CCCCC2)n(O)c(=O)c1.NCCO [Ciclopirox ethanolamine]	*

Same assay, conditions: library screen, ThS fluorescence net change over 16 h with p-tau

Compound	ThS net change
COc1cc(-c2ccc(/N=N/c3ccc4c(S(=O)(=O)[O-])cc(S(=O)(=O)[O-])c(N)c4c3O)c(OC)c2)ccc1/N=N/c1ccc2c(S(=O)(=O)[O-])cc(S(=O)(=O)[O-])c(N)c2c1O.[Na+].[Na+].[Na+].[Na+] [Chicago sky blue 6B]	11
[H]/N=C(\N/C(=N/[H])NCCCCCCNC(=N)NC(=N)Nc1ccc(Cl)cc1)Nc1ccc(Cl)cc1 [Chlorhexidine]	317
COc1ccc(C(Cl)=C(c2ccc(OC)cc2)c2ccc(OC)cc2)cc1 [Chlorotrianisene]	235
Oc1c(Cl)cc(Cl)c2cccnc12 [Chloroxine]	288
CN(C)CCCN1c2ccccc2Sc2ccc(Cl)cc21 [Chlorpromazine hydrochloride]	317
CN(C)[C@@H]1C(O)=C(C(N)=O)C(=O)[C@@]2(O)C(O)=C3C(=O)c4c(O)ccc(Cl)c4[C@@](C)(O)[C@H]3C[C@@H]12 [Chlortetracycline hydrochloride]	223
Cc1cc(C2CCCCC2)n(O)c(=O)c1.NCCO [Ciclopirox ethanolamine]	20
COCCOC(=O)C1=C(C)NC(C)=C(C(=O)OC/C=C/c2ccccc2)C1c1cccc([N+](=O)[O-])c1 (centres unmarked) [Cilnidipine]	230
CN1CCC[C@@H]1CCO[C@](C)(c1ccccc1)c1ccc(Cl)cc1 [Clemastine fumarate]	268
Cl.Clc1ccc(Cn2c(CN3CCCC3)nc3ccccc32)cc1 [Clemizole hydrochloride]	325

Same assay, conditions: p-tau aggregation modulator screen of 1280-compound library; ThS fluorescence net change

Compound	ThS net change
CCN1CCN(C(=O)N[C@@H](C(=O)N[C@@H]2C(=O)N3C(C(=O)O)=C(CSc4nnnn4C)CS[C@H]23)c2ccc(O)cc2)C(=O)C1=O [Cefoperazone dihydrate]	363
NCc1ccccc1CC(=O)N[C@@H]1C(=O)N2C(C(=O)O)=C(CSc3nnnn3CC(=O)O)CS[C@H]12 [Ceforanide]	351
CO[C@@]1(NC(=O)Cc2cccs2)C(=O)N2C(C(=O)O)=C(COC(N)=O)CS[C@@H]21 [Cefoxitin sodium salt]	354
CC(C)(O/N=C(\C(=O)N[C@@H]1C(=O)N2C(C(=O)[O-])=C(C[n+]3ccccc3)CS[C@H]12)c1csc(N)n1)C(=O)O [Ceftazidime pentahydrate]	358
CO/N=C(\C(=O)N[C@@H]1C(=O)N2C(C(=O)O)=C(COC(N)=O)CS[C@H]12)c1ccco1 [Cefuroxime sodium salt]	365
O=C(N[C@H](CO)[C@H](O)c1ccc([N+](=O)[O-])cc1)C(Cl)Cl [Chloramphenicol]	344
CN1CCN(C(c2ccccc2)c2ccc(Cl)cc2)CC1 (centres unmarked) [Chlorcyclizine hydrochloride]	337
NS(=O)(=O)c1cc2c(cc1Cl)N=CNS2(=O)=O [Chlorothiazide]	359
CN/C(=N/CCSCc1nc[nH]c1C)NC#N [Cimetidine]	356
C(=C\c1ccccc1)/CN1CCN(C(c2ccccc2)c2ccccc2)CC1 [Cinnarizine]	356
CN(C)CCCC1(c2ccc(F)cc2)OCc2cc(C#N)ccc21 (centres unmarked) [Citalopram Hydrobromide]	351
CCC[C@@H]1C[C@@H](C(=O)N[C@@H]([C@H]2O[C@H](SC)[C@H](O)[C@@H](O)[C@H]2O)[C@H](C)Cl)N(C)C1 [Clindamycin hydrochloride]	344
Oc1c(I)cc(Cl)c2cccnc12 [Clioquinol]	336
CC(CN(C)C)C(C)(O)Cc1ccc(Cl)cc1.Cl (centres unmarked) [Clobutinol hydrochloride]	336
CC(C)(Oc1ccc(Cl)cc1)C(=O)O [Clofibric acid]	349

Same assay, conditions: p-tau aggregation modulator screen of 1280-compound library; […]

Compound	ThS net change
CCN(CC)CCCC(C)Nc1ccnc2cc(Cl)ccc12 (centres unmarked) [Chloroquine diphosphate]	338
CN(C)CCC(c1ccc(Cl)cc1)c1ccccn1 (centres unmarked) [Chlorpheniramine maleate]	354
CC(C)(C)NCC(O)c1cc(Cl)c(N)c(Cl)c1 (centres unmarked) [Clenbuterol hydrochloride]	349
O=P(O)(O)C(Cl)(Cl)P(=O)(O)O [Clodronate]	370

Same assay, conditions: p-tau aggregation modulator screen of the compound library, ThS fluorescence net change

Compound	ThS net change
CN(C)CCn1nnnc1SCC1=C(C(=O)O)N2C(=O)[C@@H](NC(=O)Cc3csc(N)n3)[C@H]2SC1 [Cefotiam hydrochloride]	423
COCC1=C(C(=O)OC(C)OC(=O)OC(C)C)N2C(=O)[C@@H](NC(=O)/C(=N\OC)c3csc(N)n3)[C@H]2SC1 (some centres unmarked) [Cefpodoxime proxetil]	454
Nc1nc(/C(=C/CC(=O)O)C(=O)N[C@@H]2C(=O)N3C(C(=O)O)=CCS[C@H]23)cs1 [Ceftibuten]	441
CO/N=C(\C(=O)N[C@@H]1C(=O)N2C(C(=O)OC(C)OC(C)=O)=C(COC(N)=O)CS[C@H]12)c1ccco1 (some centres unmarked) [Cefuroxime axetil]	445
Cc1ccc(-c2cc(C(F)(F)F)nn2-c2ccc(S(N)(=O)=O)cc2)cc1 [Celecoxib]	429
CC(=O)OCC1=C(C(=O)O)N2C(=O)[C@@H](NC(=O)Cc3cccs3)[C@H]2SC1 [Cephalothin sodium salt]	446
CN(C)CCN(Cc1ccc(Cl)cc1)c1ccccn1.Cl [Chloropyramine hydrochloride]	421
NC(=O)OCC(O)COc1ccc(Cl)cc1 (centres unmarked) [Chlorphensin carbamate]	516
CCCNC(=O)NS(=O)(=O)c1ccc(Cl)cc1 [Chlorpropamide]	425
CCn1nc(C(=O)O)c(=O)c2cc3c(cc21)OCO3 [Cinoxacin]	431
CC(C)(Oc1ccc(C2CC2(Cl)Cl)cc1)C(=O)O (centres unmarked) [Ciprofibrate]	448
COc1ccc(C[C@@H]2c3cc(OC)c(OC)cc3CC[N@+]2(C)CCC(=O)OCCCCCOC(=O)CC[N@@+]2(C)CCc3cc(OC)c(OC)cc3[C@H]2Cc2ccc(OC)c(OC)c2)cc1OC [Cisatracurium besylate]	458
CC[C@H]1OC(=O)[C@H](C)[C@@H](O[C@H]2C[C@@](C)(OC)[C@@H](O)[C@H](C)O2)[C@H](C)[C@@H](O[C@@H]2O[C@H](C)C[C@H](N(C)C)[C@H]2O)[C@](C)(OC)C[C@@H](C)C(=O)[C@H](C)[C@@H](O)[C@]1(C)O [Clarithromycin]	416
NC1CCN(c2c(F)cc3c(=O)c(C(=O)O)cn(C4CC4)c3c2Cl)C1 (centres unmarked) [Clinafloxacin]	433
C[C@@H]1C[C@H]2[C@@H]3C[C@H](F)C4=CC(=O)C=C[C@]4(C)[C@@]3(Cl)[C@@H](O)C[C@]2(C)[C@H]1C(=O)COC(=O)C(C)(C)C [Clocortolone pivalate]	414
CCOC(=O)C(C)(C)Oc1ccc(Cl)cc1 [Clofibrate]	461

Source: PMC7539012, “Hyperphosphorylated tau aggregation and cytotoxicity modulators screen identified prescription drugs linked to Alzheimer's disease and cognitive functions” (Scientific Reports, 2020)
